From the supplement of paper PMC11061612

Legend:
Assay in all cases: Bliss excess, mean over the matrix (fraction); higher = more synergy
HOS (Osteosarcoma) = tested on: HOS (Osteosarcoma)
In short: (§1)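 After 24 hours at 37°C and 5% CO2 in 1536-well plates, cells in DMEM/F12 or RPMI plus 10% FBS received two-drug dose matrices for 72 hours. Viability came from CellTiter-Glo 2.0 luminescence and was scaled as inhibition, anchored at 0 by vehicle wells and at 1 by blank wells. Combination Emax is taken as the second-highest inhibition in the matrix, and Bliss excess as the observed combination effect less EA + EB − EA·EB, with EA and EB the single-agent effects.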

[1] = tested on: Ramos-2G6-4C10 (Burkitt's Lymphoma)
In short: as §1

[2] = tested on: LNCaP-Clone-FGC (Prostate Carcinoma)
In short: as §1

[3] = tested on: CaR-1 (Colorectal Carcinoma)
In short: as §1

[4] = tested on: KYSE-520 (Esophageal Squamous Cell Carcinoma)
In short: as §1

[5] = tested on: COLO-205 (Colorectal Carcinoma)
In short: as §1

[6] = tested on: KP-1N (Pancreatic Carcinoma)
In short: as §1

[7] = tested on: HT-1376 (Bladder Carcinoma)
In short: as §1

AGS (Gastric Carcinoma) = tested on: AGS (Gastric Carcinoma)
In short: as §1

[8] = tested on: HCC-78 (Lung Adenocarcinoma)
In short: as §1

[9] = tested on: SNU-5 (Gastric Carcinoma)
In short: as §1

[10] = tested on: MFE-296 (Endometrial Carcinoma)
In short: as §1

[11] = tested on: CCRF-CEM (T-Lymphoblastic Leukemia)
In short: as §1

[12] = tested on: TCCSUP (Bladder Carcinoma)
In short: as §1

[13] = tested on: B-CPAP (Thyroid Gland Carcinoma)
In short: as §1

[14] = tested on: EC-GI-10 (Esophageal Squamous Cell Carcinoma)
In short: as §1

[15] = tested on: Daoy (Other Solid Carcinomas)
In short: as §1

[16] = tested on: TE-9 (Esophageal Squamous Cell Carcinoma)
In short: as §1

[17] = tested on: HO-1-N-1 (Oral Cavity Carcinoma)
In short: as §1

[18] = tested on: Calu-3 (Lung Adenocarcinoma)
In short: as §1

Which results are given for `CN(CCO)CC[C@H](CSc1ccccc1)Nc1ccc(S(=O)(=O)NC(=O)c2ccc(N3CCC([C@@H](O)c4ccccc4-c4ccc(Cl)cc4)CC3)cc2)cc1S(=O)(=O)C(F)(F)F` [AZD4320] + Cn1cnc2c(F)c(Nc3ccc(Br)cc3Cl)c(C(=O)NOCCO)cc21 [Selumetinib] (first compound max 1 µM, 7x7, partner max 3 µM)?
Bliss excess (HOS (Osteosarcoma)): 0.0245; Bliss excess [1]: 0.138; Bliss excess [2]: 0.0009; Bliss excess [3]: -0.0573; Bliss excess [4]: 0.0306; Bliss excess [5]: 0.026; Bliss excess [6]: -0.0277; Bliss excess [7]: 0.0297; Bliss excess (AGS (Gastric Carcinoma)): 0.181; Bliss excess [8]: 0.0491; Bliss excess [9]: 0.118; Bliss excess [10]: -0.0178; Bliss excess [11]: 0.0099; Bliss excess [12]: 0.0157; Bliss excess [13]: 0.0228; Bliss excess [14]: 0.0802; Bliss excess [15]: 0.129; Bliss excess [16]: 0.0456; Bliss excess [17]: -0.0533; Bliss excess [18]: -0.0028

`COc1nnc2ccc(N3CCC(c4ccc(OCCN5CCN(C)C(=O)[C@H]5C)cc4)CC3)nn12` [AZD5153] + C=CCn1c(=O)c2cnc(Nc3ccc(N4CCN(C)CC4)cc3)nc2n1-c1cccc(C(C)(C)O)n1 [AZD1775] (first compound max 1 µM, partner max 1 µM) was tested. Which Bliss excess (HOS (Osteosarcoma)) did it give?
Its Bliss excess is -0.0504.

And the Bliss excess [1]?
The Bliss excess was -0.0657.

And the Bliss excess [2]?
Its Bliss excess is -0.0733.

What about the Bliss excess [3] of the same compound?
The Bliss excess was -0.0267.

What about the Bliss excess [4] of the same compound?
The Bliss excess was -0.0399.

What about the Bliss excess [5] of the same compound?
Its Bliss excess is -0.0529.

And the Bliss excess [6]?
Its Bliss excess is 0.0464.

What about the Bliss excess [7] of the same compound?
The Bliss excess was 0.0053.

What about the Bliss excess (AGS (Gastric Carcinoma)) of the same compound?
The Bliss excess was -0.0294.

What about the Bliss excess [8] of the same compound?
Its Bliss excess is -0.055.

And the Bliss excess [9]?
Its Bliss excess is -0.0759.

What about the Bliss excess [10] of the same compound?
Its Bliss excess is -0.0541.

What about the Bliss excess [11] of the same compound?
The Bliss excess was -0.019.

And the Bliss excess [12]?
The Bliss excess was -0.0497.

What about the Bliss excess [13] of the same compound?
The Bliss excess was -0.0803.

And the Bliss excess [14]?
The Bliss excess was -0.0813.

What about the Bliss excess [15] of the same compound?
The Bliss excess was -0.0196.

What about the Bliss excess [16] of the same compound?
The Bliss excess was -0.0028.

What about the Bliss excess [17] of the same compound?
Its Bliss excess is -0.0551.

And the Bliss excess [18]?
Its Bliss excess is -0.0678.

What does the source list for `COc1nnc2ccc(N3CCC(c4ccc(OCCN5CCN(C)C(=O)[C@H]5C)cc4)CC3)nn12` [AZD5153] + CC1(C)CCC(CN2CCN(c3ccc(C(=O)NS(=O)(=O)c4ccc(NCC5CCOCC5)c([N+](=O)[O-])c4)c(Oc4cnc5[nH]ccc5c4)c3)CC2)=C(c2ccc(Cl)cc2)C1 [Venetoclax] (first compound max 1 µM, 7x7, partner max 1 µM)?
Bliss excess (HOS (Osteosarcoma)): -0.0508; Bliss excess [1]: -0.0041; Bliss excess [2]: -0.0468; Bliss excess [3]: -0.0643; Bliss excess [4]: -0.0444; Bliss excess [5]: -0.0745; Bliss excess [6]: -0.0714; Bliss excess [7]: -0.0305; Bliss excess (AGS (Gastric Carcinoma)): -0.0619; Bliss excess [8]: -0.0448; Bliss excess [9]: -0.0754; Bliss excess [10]: -0.0824; Bliss excess [11]: -0.0742; Bliss excess [12]: -0.0768; Bliss excess [13]: -0.0858; Bliss excess [14]: -0.118; Bliss excess [15]: -0.0568; Bliss excess [16]: -0.0599; Bliss excess [17]: -0.095; Bliss excess [18]: -0.0258

With `COc1nnc2ccc(N3CCC(c4ccc(OCCN5CCN(C)C(=O)[C@H]5C)cc4)CC3)nn12` [AZD5153] + CCN(CCO)CCCOc1ccc2c(Nc3cc(CC(=O)Nc4cccc(F)c4)[nH]n3)ncnc2c1 [AZD2811] (first compound max 1 µM, 7x7, partner max 1 µM) as the compound, how does the Bliss excess (HOS (Osteosarcoma)) read?
Its Bliss excess is -0.0093.

What about the Bliss excess [1] of the same compound?
Its Bliss excess is -0.0004.

And the Bliss excess [2]?
Its Bliss excess is -0.0081.

What about the Bliss excess [3] of the same compound?
The Bliss excess was -0.0663.

What about the Bliss excess [4] of the same compound?
Its Bliss excess is -0.0709.

And the Bliss excess [5]?
The Bliss excess was -0.0595.

What about the Bliss excess [6] of the same compound?
Its Bliss excess is -0.0273.

What about the Bliss excess [7] of the same compound?
Its Bliss excess is -0.0381.

What about the Bliss excess (AGS (Gastric Carcinoma)) of the same compound?
The Bliss excess was 0.0294.

What about the Bliss excess [8] of the same compound?
Its Bliss excess is -0.0314.

And the Bliss excess [9]?
The Bliss excess was -0.0501.

And the Bliss excess [10]?
The Bliss excess was -0.0264.

What about the Bliss excess [11] of the same compound?
Its Bliss excess is -0.0407.

And the Bliss excess [12]?
The Bliss excess was -0.0398.

What about the Bliss excess [13] of the same compound?
The Bliss excess was -0.0367.

What about the Bliss excess [14] of the same compound?
The Bliss excess was -0.0142.

What about the Bliss excess [15] of the same compound?
Its Bliss excess is -0.0369.

What about the Bliss excess [16] of the same compound?
The Bliss excess was -0.0096.

And the Bliss excess [17]?
The Bliss excess was -0.0014.

And the Bliss excess [18]?
Its Bliss excess is -0.0303.

For `COc1nnc2ccc(N3CCC(c4ccc(OCCN5CCN(C)C(=O)[C@H]5C)cc4)CC3)nn12` [AZD5153] + C[C@@H]1COCCN1C2=NC(=NC(=C2)C3(CC3)[S@](=N)(=O)C)C4=C5C=CNC5=NC=C4 [AZD6738] (first compound max 1 µM, 7x7, partner max 10 µM), which Bliss excess (HOS (Osteosarcoma)) is on record?
The Bliss excess was -0.0413.

And the Bliss excess [1]?
Its Bliss excess is -0.0534.

What about the Bliss excess [2] of the same compound?
Its Bliss excess is -0.0318.

What about the Bliss excess [3] of the same compound?
Its Bliss excess is 0.0411.

And the Bliss excess [4]?
The Bliss excess was -0.0009.

What about the Bliss excess [5] of the same compound?
The Bliss excess was -0.0115.

What about the Bliss excess [6] of the same compound?
Its Bliss excess is 0.131.

And the Bliss excess [7]?
The Bliss excess was -0.0006.

And the Bliss excess (AGS (Gastric Carcinoma))?
The Bliss excess was 0.0381.

What about the Bliss excess [8] of the same compound?
Its Bliss excess is -0.0235.

And the Bliss excess [9]?
Its Bliss excess is -0.0128.

And the Bliss excess [10]?
Its Bliss excess is 0.0129.

And the Bliss excess [11]?
The Bliss excess was -0.0178.

What about the Bliss excess [12] of the same compound?
Its Bliss excess is -0.0327.

What about the Bliss excess [13] of the same compound?
The Bliss excess was 0.0219.

What about the Bliss excess [14] of the same compound?
The Bliss excess was 0.0203.

What about the Bliss excess [15] of the same compound?
Its Bliss excess is -0.0356.

And the Bliss excess [16]?
Its Bliss excess is 0.0039.

And the Bliss excess [17]?
The Bliss excess was 0.01.

What about the Bliss excess [18] of the same compound?
Its Bliss excess is 0.0066.

With `COc1nnc2ccc(N3CCC(c4ccc(OCCN5CCN(C)C(=O)[C@H]5C)cc4)CC3)nn12` [AZD5153] + Cc1c2c(nn1C)CSCc1cc(n(C)n1)CSc1cc(c3ccccc3c1)OCCCc1c(C(=O)O)n(C)c3c-2c(Cl)ccc13 [AZD5991] (first compound max 1 µM, 7x7, partner max 1 µM) as the compound, how does the Bliss excess (HOS (Osteosarcoma)) read?
The Bliss excess was 0.0009.

What about the Bliss excess [1] of the same compound?
Its Bliss excess is 0.0407.

What about the Bliss excess [2] of the same compound?
Its Bliss excess is -0.0722.

And the Bliss excess [3]?
Its Bliss excess is -0.0548.

And the Bliss excess [4]?
The Bliss excess was -0.0457.

And the Bliss excess [5]?
The Bliss excess was -0.0303.

What about the Bliss excess [6] of the same compound?
Its Bliss excess is -0.0176.

And the Bliss excess [7]?
Its Bliss excess is -0.0135.

What about the Bliss excess (AGS (Gastric Carcinoma)) of the same compound?
The Bliss excess was -0.0166.

What about the Bliss excess [8] of the same compound?
The Bliss excess was -0.0184.

And the Bliss excess [9]?
Its Bliss excess is -0.0069.

And the Bliss excess [10]?
Its Bliss excess is 0.028.

What about the Bliss excess [11] of the same compound?
The Bliss excess was -0.0035.

What about the Bliss excess [12] of the same compound?
The Bliss excess was -0.0234.

What about the Bliss excess [13] of the same compound?
Its Bliss excess is -0.0224.

What about the Bliss excess [14] of the same compound?
Its Bliss excess is 0.0527.

What about the Bliss excess [15] of the same compound?
The Bliss excess was -0.0133.

And the Bliss excess [16]?
The Bliss excess was -0.007.

And the Bliss excess [17]?
Its Bliss excess is 0.0068.

What about the Bliss excess [18] of the same compound?
Its Bliss excess is -0.0288.

How did the Bliss excess (HOS (Osteosarcoma)) turn out when `COc1nnc2ccc(N3CCC(c4ccc(OCCN5CCN(C)C(=O)[C@H]5C)cc4)CC3)nn12` [AZD5153] + Cn1cnc2c(F)c(Nc3ccc(Br)cc3Cl)c(C(=O)NOCCO)cc21 [Selumetinib] (first compound max 1 µM, 7x7, partner max 10 µM) was run?
The Bliss excess was 0.0429.

And the Bliss excess [1]?
Its Bliss excess is -0.0465.

What about the Bliss excess [2] of the same compound?
The Bliss excess was -0.0583.

What about the Bliss excess [3] of the same compound?
The Bliss excess was 0.0208.

And the Bliss excess [4]?
The Bliss excess was 0.0018.

And the Bliss excess [5]?
Its Bliss excess is 0.0422.

What about the Bliss excess [6] of the same compound?
The Bliss excess was -0.0417.

What about the Bliss excess [7] of the same compound?
Its Bliss excess is 0.0081.

And the Bliss excess (AGS (Gastric Carcinoma))?
Its Bliss excess is 0.0163.

What about the Bliss excess [8] of the same compound?
Its Bliss excess is 0.0035.

And the Bliss excess [9]?
The Bliss excess was -0.0254.

What about the Bliss excess [10] of the same compound?
Its Bliss excess is -0.0519.

And the Bliss excess [11]?
Its Bliss excess is -0.0015.

What about the Bliss excess [12] of the same compound?
The Bliss excess was -0.0264.

What about the Bliss excess [13] of the same compound?
The Bliss excess was -0.0435.

What about the Bliss excess [14] of the same compound?
Its Bliss excess is 0.0858.

What about the Bliss excess [15] of the same compound?
Its Bliss excess is -0.0253.

What about the Bliss excess [16] of the same compound?
The Bliss excess was -0.0161.

And the Bliss excess [17]?
Its Bliss excess is 0.0226.

What about the Bliss excess [18] of the same compound?
The Bliss excess was 0.0229.
